Test [1] has as its system asymmetric di-methyl PABP1 in RKO cells. The test is described as follows: RKO methylation assay: In Cell Western (ICW) for asymmetric di-methyl PABP1 (PABP1me2a). The note with it: Homo sapiens, RKO, 48 h, Cellular-based (PABP1me2a) ICW (In Cell Western) assay. The procedure, abridged:
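In-cell western on compound-exposed RKO cells (48 hours): asymmetric di-methyl PABP1 detected by antibody at 800 nm, DNA content by DRAQ5 at 700 nm. Percent inhibition from signal ratios against DMSO (minimum) and 20 μM reference compound (maximum) wells; IC50 curves fitted from triplicates.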

Another test has as its target T1, Human CARM1 (PRMT4) (Homo sapiens, UniProt Q86X55).
T1 construct: Flag-CARM1-His was eluted with 200 ug/ml FLAG peptide in buffer A; made in house; host or cells: HEK 293F cells infected with recombinant baculovirus (pFastBacMam)
T1 sequence (Q86X55 1-585 isoform Q86X55-1): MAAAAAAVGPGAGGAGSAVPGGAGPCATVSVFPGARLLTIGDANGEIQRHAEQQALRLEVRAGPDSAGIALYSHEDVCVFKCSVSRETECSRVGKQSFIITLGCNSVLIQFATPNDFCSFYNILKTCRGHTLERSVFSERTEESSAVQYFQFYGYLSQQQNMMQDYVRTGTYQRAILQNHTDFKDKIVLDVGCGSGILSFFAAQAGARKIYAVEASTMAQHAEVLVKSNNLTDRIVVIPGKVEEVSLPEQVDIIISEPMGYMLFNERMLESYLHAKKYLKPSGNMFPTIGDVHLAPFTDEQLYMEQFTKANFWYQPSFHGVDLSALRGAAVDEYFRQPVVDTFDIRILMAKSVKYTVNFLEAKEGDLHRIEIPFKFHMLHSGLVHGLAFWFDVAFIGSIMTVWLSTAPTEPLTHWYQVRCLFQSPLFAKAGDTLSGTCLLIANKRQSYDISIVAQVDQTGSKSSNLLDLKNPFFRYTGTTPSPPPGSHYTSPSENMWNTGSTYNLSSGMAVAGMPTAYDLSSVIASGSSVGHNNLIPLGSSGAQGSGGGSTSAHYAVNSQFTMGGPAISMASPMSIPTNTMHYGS
The test can be described thus: CARM1 enzyme assay on peptide substrates (3H-SAM Flashplate). The note with it: Biochemical assay; CARM1 0.25 nM, 3H-SAM 30 nM, peptide 250 nM; read-out: Biochem IC50.

SMILES strings stand for the structures.

Consider `CNC[C@@H](O)COc1ccc(Cl)c(-c2nc(-c3c(C)noc3C)c(C)c(N3CC4(CCC(F)(F)CC4)C3)n2)c1` [Example 67], for which the IC50 came to 71 nM in test [1] and 5 nM at Human CARM1 (PRMT4).

Turning to `CNC[C@@H](O)COc1ccc(Cl)c(-c2nc(-c3c(C)noc3C)c(C)c(N3CC4(CC=C(F)CC4)C3)n2)c1` [Example 68], the IC50 was found to be 144 nM in test [1] and 3.9 nM at Human CARM1 (PRMT4).

For `CNC[C@@H](O)COc1ccc(Cl)c(-c2nc(-c3c(C)noc3C)c(C)c(N3Cc4ccc(C)nc4C3)n2)c1` [Example 69], the IC50 was determined as 22 nM in test [1] and 1.2 nM at Human CARM1 (PRMT4).

Consider `CNC[C@@H](O)COc1ccc(Cl)c(-c2nc(-c3c(C)noc3C)c(C)c(N3Cc4cnc(OC)nc4C3)n2)c1` [Example 70], for which the IC50 was determined as 19 nM in test [1] and 3.2 nM on Human CARM1 (PRMT4).

On to `CNC[C@@H](O)COc1ccc(Cl)c(-c2nc(-c3c(C)noc3C)c(C)c(N3C[C@]4(C)CN(CC(F)F)C[C@]4(C)C3)n2)c1` [Example 71], for which the IC50 in test [1] stood at 221 nM; on Human CARM1 (PRMT4) it was 5.6 nM.

Turning to `CCOc1ncc2c(n1)CN(c1nc(-c3cc(OC[C@H](O)CNC)ccc3Cl)nc(-c3c(C)noc3C)c1C)C2` [Example 72], the IC50 in test [1] was 12 nM; on Human CARM1 (PRMT4), 2.9 nM.

In the case of `CNC[C@@H](O)COc1ccc(Cl)c(-c2nc(-c3c(C)noc3C)c(C)c(N3Cc4cc(=O)n(C(C)C)cc4C3)n2)c1` [Example 73], the results for the IC50 (in test [1]; at Human CARM1 (PRMT4)) were 422 nM and 6.1 nM, respectively.

As to `CNC[C@@H](O)COc1ccc(Cl)c(-c2nc(-c3c(Cl)cnn3C)c(C)c(N3CC4(CCN(C(=O)OC)CC4)C3)n2)c1` [Example 74], the results for the IC50 (in test [1]; at Human CARM1 (PRMT4)) were 207 nM and 9.7 nM, respectively.

For `CCn1ncc(Cl)c1-c1nc(-c2cc(OC[C@H](O)CNC)ccc2Cl)nc(N2CC3(CCN(C(=O)OC)CC3)C2)c1C` [Example 75], the IC50 came to 396 nM in test [1] and 12.5 nM on Human CARM1 (PRMT4).

As to `CCn1ncc(Cl)c1-c1nc(-c2cc(OC[C@H](O)CNC)ccc2Cl)nc(N2Cc3cncnc3C2)c1C` [Example 76], the IC50 was 268 nM in test [1] and 4.8 nM on Human CARM1 (PRMT4).

With `CCn1ncc(Cl)c1-c1nc(-c2cc(OC[C@H](O)CNC)ccc2Cl)nc(N2Cc3cccnc3C2)c1C` [Example 77], the IC50 in test [1] is 293 nM; on Human CARM1 (PRMT4), 3.7 nM.

Consider `CNC[C@@H](O)COc1ccc(Cl)c(-c2nc(-c3c(C)noc3C)c(C)c(N3CC4(C3)CC(F)(F)C4)n2)c1` [Example 78], for which the IC50 in test [1] came to 112 nM; at Human CARM1 (PRMT4), 5.6 nM.

`CNC[C@@H](O)COc1ccc(Cl)c(-c2nc(-c3c(C)noc3C)c(C)c(N3CC4(CC(OC)C4)C3)n2)c1` [Example 79]: the IC50 in test [1] amounted to 60 nM; on Human CARM1 (PRMT4), 9.3 nM.

As for `CNC[C@@H](O)COc1ccc(Cl)c(-c2nc(-c3c(C)cnn3C)c(C)c(N3CC4(CCN(C(=O)OC)CC4)C3)n2)c1` [Example 80], the IC50 was 182 nM in test [1] and 8.8 nM on Human CARM1 (PRMT4).

For `CNC[C@@H](O)COc1ccc(Cl)c(-c2nc(-c3c(C)cnn3C)c(C)c(N3Cc4cncnc4C3)n2)c1` [Example 81], the IC50 in test [1] stood at 112 nM; on Human CARM1 (PRMT4), 3.8 nM.

As for `CNC[C@@H](O)COc1ccc(Cl)c(-c2nc(-c3c(C)cnn3C)c(C)c(N3Cc4cccnc4C3)n2)c1` [Example 82], the IC50 in test [1] stood at 56 nM; on Human CARM1 (PRMT4), 2.1 nM.

Consider `CNC[C@@H](O)COc1ccc(Cl)c(-c2nc(-c3c(C)noc3C)c(C)c(N3CC4(CCC(SC)CC4)C3)n2)c1` [Example 83], for which the IC50 was 74 nM in test [1] and 3.3 nM at Human CARM1 (PRMT4).

Take `CNC[C@@H](O)COc1ccc(Cl)c(-c2nc(-c3c(C)c(Cl)nn3C)c(C)c(N3Cc4cccnc4C3)n2)c1` [Example 84]: the values for the IC50 (in test [1]; at Human CARM1 (PRMT4)) were 28 nM and 1.6 nM, respectively.

`CNC[C@@H](O)COc1cccc(-c2nc(-c3c(C)c(Cl)nn3C)c(C)c(N3Cc4cccnc4C3)n2)c1` [Example 85]: the IC50 in test [1] was found to be 83 nM; on Human CARM1 (PRMT4), 1.1 nM.

Consider `CNC[C@@H](O)COc1ccc(Cl)c(-c2nc(C#CC3CCN(C(=O)OC)CC3)c(C)c(-c3c(C)noc3C)n2)c1` [Example 86], for which the IC50 in test [1] came out at 283 nM; on Human CARM1 (PRMT4) it was 97 nM.

On to `CCn1ncc(C)c1-c1nc(-c2cc(OC[C@H](O)CNC)ccc2Cl)nc(N2CC3(CCN(C(=O)OC)CC3)C2)c1C` [Example 87], for which the IC50 in test [1] was 205 nM; at Human CARM1 (PRMT4) it was 9 nM.

Regarding `CCn1ncc(C)c1-c1nc(-c2cc(OC[C@H](O)CNC)ccc2Cl)nc(N2Cc3cncnc3C2)c1C` [Example 88], the values for the IC50 (in test [1]; at Human CARM1 (PRMT4)) were 222 nM and 4.6 nM, respectively.

On to `CCn1ncc(C)c1-c1nc(-c2cc(OC[C@H](O)CNC)ccc2Cl)nc(N2Cc3cccnc3C2)c1C` [Example 89], for which the IC50 in test [1] came to 165 nM; at Human CARM1 (PRMT4) it was 3.7 nM.

For the molecule `CNC[C@@H](O)COc1ccc(Cl)c(-c2nc(-c3c(C)noc3C)c(C)c(N3Cc4nc(OC)nc(OC)c4C3)n2)c1` [Example 90], the results for the IC50 (in test [1]; on Human CARM1 (PRMT4)) were 32 nM and 2.2 nM, respectively.

`CNC[C@@H](O)COc1ccc(Cl)c(-c2nc(-c3c(C)noc3C)c(C)c(N3CC4(CC(C(=O)N(C)C)C4)C3)n2)c1` [Example 91]: the IC50 in test [1] is 92 nM; on Human CARM1 (PRMT4) it was 5.5 nM.

Regarding `CNC[C@@H](O)COc1ccc(Cl)c(-c2nc(-c3c(C)noc3C)c(C)c(N3CC4(CCC(C#N)CC4)C3)n2)c1` [Example 92], the results for the IC50 (in test [1]; at Human CARM1 (PRMT4)) were 64 nM and 5.2 nM, respectively.

As for `CNC[C@@H](O)COc1ccc(Cl)c(-c2nc(-c3c(C)noc3C)c(C)c(N3Cc4ncnc(OC)c4C3)n2)c1` [Example 93], the IC50 came out at 33 nM in test [1] and 2.3 nM on Human CARM1 (PRMT4).

Consider `CNC[C@@H](O)COc1ccc(Cl)c(-c2nc(-c3c(C)noc3C)c(C)c(N3Cc4ncnc(OCCOC)c4C3)n2)c1` [Example 94], for which the IC50 in test [1] was 44 nM; on Human CARM1 (PRMT4), 2.3 nM.

With `CNC[C@@H](O)COc1ccc(Cl)c(-c2nc(/C=C(\OC)C3CCN(C(=O)OC)CC3)c(C)c(-c3c(C)noc3C)n2)c1` [Example 95], the IC50 in test [1] was found to be 995 nM; at Human CARM1 (PRMT4), 11.2 nM.

As to `CNC[C@@H](O)COc1ccc(Cl)c(-c2nc(-c3c(C)noc3C)c(C)c(N3CC4(C3)CN(C3CC3)C4)n2)c1` [Example 96], the figures for the IC50 (in test [1]; at Human CARM1 (PRMT4)) were 54 nM and 2.1 nM, respectively.

On to `CNC[C@@H](O)COc1ccc(Cl)c(-c2nc(-c3c(C)noc3C)c(C)c(N3CC4(CCC(S(C)(=O)=O)CC4)C3)n2)c1` [Example 97], for which the results for the IC50 (in test [1]; on Human CARM1 (PRMT4)) were 394 nM and 10.9 nM, respectively.

On to `CNC[C@@H](O)COc1ccc(Cl)c(-c2nc(-c3c(C)noc3C)c(C)c(N3CC4(CCN4C(=O)OC)C3)n2)c1` [Example 98], for which the IC50 was determined as 99 nM in test [1] and 8.4 nM at Human CARM1 (PRMT4).

Regarding `CNC[C@@H](O)COc1ccc(Cl)c(-c2nc(-c3c(C)noc3C)c(C)c(N3CC4(CN(CC(F)(F)F)C4)C3)n2)c1` [Example 99], the IC50 in test [1] worked out at 39 nM; on Human CARM1 (PRMT4) it was 11 nM.

For `CNC[C@@H](O)COc1ccc(Cl)c(-c2nc(-c3c(C)noc3C)c(C)c(N3CC4(CCN4CC(F)(F)F)C3)n2)c1` [Example 100], the results for the IC50 (in test [1]; on Human CARM1 (PRMT4)) were 68 nM and 11.3 nM, respectively.

In the case of `CCc1cc2c(c(C)n1)CN(c1nc(-c3cc(OC[C@H](O)CNC)ccc3Cl)nc(-c3c(C)noc3C)c1C)C2` [Example 101], the IC50 turned out to be 38 nM in test [1] and 4.4 nM at Human CARM1 (PRMT4).

The values above are taken from US20170305922A1, “CARM1 INHIBITORS AND USES THEREOF” (Epizyme, Inc., priority 2014, published 2017).
